In one test the target is T1, human TLR9 (Homo sapiens, UniProt Q9NR96).
T1 construct: host or cells: HEK-Blue cells
T1 sequence (Q9NR96 26-1032): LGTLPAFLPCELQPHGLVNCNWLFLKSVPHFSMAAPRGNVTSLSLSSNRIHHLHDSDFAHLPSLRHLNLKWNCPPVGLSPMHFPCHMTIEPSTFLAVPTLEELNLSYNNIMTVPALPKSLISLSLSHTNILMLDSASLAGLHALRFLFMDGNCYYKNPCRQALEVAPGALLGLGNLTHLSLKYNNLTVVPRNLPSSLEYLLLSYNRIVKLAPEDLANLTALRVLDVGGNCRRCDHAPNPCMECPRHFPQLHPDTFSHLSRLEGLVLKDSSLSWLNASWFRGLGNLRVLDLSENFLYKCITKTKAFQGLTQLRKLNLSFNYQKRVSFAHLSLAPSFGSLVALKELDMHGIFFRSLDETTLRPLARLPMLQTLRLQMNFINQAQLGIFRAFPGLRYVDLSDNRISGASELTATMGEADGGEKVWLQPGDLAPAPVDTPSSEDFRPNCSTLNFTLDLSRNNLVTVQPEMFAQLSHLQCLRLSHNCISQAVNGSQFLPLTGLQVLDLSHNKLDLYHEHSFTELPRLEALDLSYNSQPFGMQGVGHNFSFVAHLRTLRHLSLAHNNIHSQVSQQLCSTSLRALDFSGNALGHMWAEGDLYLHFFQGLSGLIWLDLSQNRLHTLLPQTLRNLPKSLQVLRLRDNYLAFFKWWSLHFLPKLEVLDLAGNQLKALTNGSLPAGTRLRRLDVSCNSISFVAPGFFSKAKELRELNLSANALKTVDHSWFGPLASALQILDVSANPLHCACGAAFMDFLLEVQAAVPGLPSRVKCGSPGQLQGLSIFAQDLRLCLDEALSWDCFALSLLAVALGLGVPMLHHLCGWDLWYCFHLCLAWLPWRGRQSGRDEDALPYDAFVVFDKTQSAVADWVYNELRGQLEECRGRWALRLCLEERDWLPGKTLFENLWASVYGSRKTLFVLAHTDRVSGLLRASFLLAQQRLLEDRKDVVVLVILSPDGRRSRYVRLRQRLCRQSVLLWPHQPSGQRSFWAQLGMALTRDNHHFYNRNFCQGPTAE
Kind of test: TLR9 inhibition reporter assay (HEK-Blue SEAP). The test is classed as cell-based. Particulars: HEK-Blue cells overexpressing human TLR9, ODN2006 5 nM, 22 hour incubation. The essentials:
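Compound treatment: 30 min, RT, 0.05 nM–50 μM final. Agonist: TLR7 gardiquimod 7.5 μM; TLR8 R848 15.9 μM; TLR9 ODN2006 5 nM. Incubation 22 h, 37 °C, 5% CO2. Readout SEAP, HEK-Blue Detection.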
A general note: In a reporter assay the amount or activity of a reporter protein is the signal.

Another test concerns the target T2, human TLR7 (Homo sapiens, UniProt Q9NYK1).
T2 construct: host or cells: HEK-Blue cells
T2 sequence (Q9NYK1 27-1049): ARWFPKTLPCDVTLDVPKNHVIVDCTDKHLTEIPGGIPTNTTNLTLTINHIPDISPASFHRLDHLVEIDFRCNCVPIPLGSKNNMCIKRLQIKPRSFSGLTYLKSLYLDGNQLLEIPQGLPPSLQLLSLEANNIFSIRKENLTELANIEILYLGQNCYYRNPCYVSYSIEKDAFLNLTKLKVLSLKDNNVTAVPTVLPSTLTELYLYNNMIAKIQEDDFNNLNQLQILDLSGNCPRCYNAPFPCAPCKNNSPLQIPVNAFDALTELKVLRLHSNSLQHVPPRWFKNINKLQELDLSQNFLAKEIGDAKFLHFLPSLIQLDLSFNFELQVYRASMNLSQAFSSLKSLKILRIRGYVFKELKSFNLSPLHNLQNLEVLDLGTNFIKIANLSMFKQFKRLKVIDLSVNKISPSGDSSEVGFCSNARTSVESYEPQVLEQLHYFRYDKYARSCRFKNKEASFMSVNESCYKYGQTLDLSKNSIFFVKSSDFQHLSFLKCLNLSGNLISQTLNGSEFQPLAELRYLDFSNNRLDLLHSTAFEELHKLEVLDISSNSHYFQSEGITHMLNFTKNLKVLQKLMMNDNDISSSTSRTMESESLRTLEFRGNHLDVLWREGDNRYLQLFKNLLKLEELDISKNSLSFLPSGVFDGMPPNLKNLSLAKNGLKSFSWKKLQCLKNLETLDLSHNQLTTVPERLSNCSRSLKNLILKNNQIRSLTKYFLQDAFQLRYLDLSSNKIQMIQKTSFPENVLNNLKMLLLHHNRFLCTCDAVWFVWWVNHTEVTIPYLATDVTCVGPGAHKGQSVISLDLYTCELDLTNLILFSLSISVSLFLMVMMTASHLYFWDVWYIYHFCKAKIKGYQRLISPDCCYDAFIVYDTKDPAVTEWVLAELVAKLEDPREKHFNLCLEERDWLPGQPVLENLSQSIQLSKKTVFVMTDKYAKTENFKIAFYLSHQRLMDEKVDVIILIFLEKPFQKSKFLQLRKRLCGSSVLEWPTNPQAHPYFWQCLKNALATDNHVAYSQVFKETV
The test can be described thus: TLR7 inhibition reporter assay (HEK-Blue SEAP). It is filed as cell-based. Particulars: HEK-Blue cells overexpressing human TLR7, gardiquimod 7.5 μM, 22 hour incubation. The method in brief:
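22 h, 37° C, 5% CO2 incubation; compounds 0.05 nM-50 μM final; TLR7 cells 15000/well, TLR8 20,000/well. Readout: SEAP via HEK-Blue Detection medium. % inhibition = signal reduction versus agonist + DMSO wells, referenced to known inhibitor.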

Usually IC50 stands for the point on the concentration scale where inhibition reaches its midpoint.

For `COc1cc(-c2cc3[nH]c(=O)n(C4CCC(N5CC6(COC6)C5)CC4)c3cc2C(C)C)cn2ncnc12` (stereo not drawn) [Example 254, 1-(4-(2-oxa-6-azaspiro[3.3]heptan-6-yl)cyclohexyl)-6-isopropyl-5-(8-methoxy-[1,2,4]triazolo[1,5-a]pyridin-6-yl)-1,3-dihydro-2H-benzo[d]imidazol-2-one], the figures for the half-inhibitory concentration (IC50) on human TLR9 and against human TLR7 were 14100 nM and 6.81 nM, respectively.
For `COc1c(C)c(-c2cc3[nH]c(=O)n(C4CCC(N5CCCOCC5)CC4)c3cc2C(C)C)cn2ncnc12` (single isomer, unassigned) [Example 261, 1-(4-(1,4-oxazepan-4-yl)cyclohexyl)-6-isopropyl-5-(8-methoxy-7-methyl-[1,2,4]triazolo[1,5-a]pyridin-6-yl)-1,3-dihydro-2H-benzo[d]imidazol-2-one], the values for the half-inhibitory concentration (IC50) against human TLR9 and against human TLR7 were 18700 nM and 15.5 nM, respectively.
As to `COc1cc(-c2ccc3c(c2)[nH]c(=O)n3C2CCNCC2)cn2ncnc12` [1 EI, 5-(8-methoxy-[1,2,4]triazolo[1,5-a]pyridin-6-yl)-1-(piperidin-4-yl)-1,3-dihydro-2H-benzo[d]imidazol-2-one], the results for the IC50 against human TLR9 and at human TLR7 were 1180 nM and > 3130 nM, respectively.
For `Cc1cc2c(cc1-c1cc(C)c3ncnn3c1)[nH]c(=O)n2[C@H]1CC[C@H](N(C)C)CC1` [Example 23, 1-((1r,4r)-4-(dimethylamino)cyclohexyl)-6-methyl-5-(8-methyl-[1,2,4]triazolo[1,5-a]pyridin-6-yl)-1,3-dihydro-2H-benzo[d]imidazol-2-one] the same measures were 5660 nM and 37.7 nM.
For `CCN[C@H]1CC[C@@H](n2c(=O)[nH]c3cc(-c4cc(C)c5ncnn5c4)c(C)cc32)CC1` [Example 21, 1-((1s,4s)-4-(ethylamino)cyclohexyl)-6-methyl-5-(8-methyl-[1,2,4]triazolo[1,5-a]pyridin-6-yl)-1,3-dihydro-2H-benzo[d]imidazol-2-one] the same measures were 7060 nM and 13.3 nM.
In the case of `CCN(CC)[C@H]1CC[C@@H](n2c(=O)[nH]c3cc(-c4cc(C)c5ncnn5c4)c(C)cc32)CC1` [Example 20, 1-((1s,4s)-4-(diethylamino)cyclohexyl)-6-methyl-5-(8-methyl-[1,2,4]triazolo[1,5-a]pyridin-6-yl)-1,3-dihydro-2H-benzo[d]imidazol-2-one], the IC50 against human TLR9 stood at 3350 nM; against human TLR7, 8.86 nM.
The corresponding values for `Cc1c(-c2cc3[nH]c(=O)n(C4CCC(N5CCCOCC5)CC4)c3cc2C(C)C)cn2ncnc2c1C` (stereo not drawn) [Example 271, 1-(4-(1,4-oxazepan-4-yl)cyclohexyl)-5-(7,8-dimethyl-[1,2,4]triazolo[1,5-a]pyridin-6-yl)-6-isopropyl-1,3-dihydro-2H-benzo[d]imidazol-2-one] are 8160 nM and 6.06 nM.
The corresponding values for `COc1cc(-c2cc3[nH]c(=O)n(C4CCC(N(C)CCC(F)(F)F)CC4)c3cc2C(C)C)cn2ncnc12` (single isomer, unassigned) [Example 248, 6-isopropyl-5-(8-methoxy-[1,2,4]triazolo[1,5-a]pyridin-6-yl)-1-(4-(methyl(3,3,3-trifluoropropyl)amino)cyclohexyl)-1,3-dihydro-2H-benzo[d]imidazol-2-one] are 9770 nM and 1.12 nM.
As to `COc1cc(-c2cc3[nH]c(=O)n(C4CCC(N5CCC(F)(F)CC5)CC4)c3cc2C(C)C)cn2ncnc12` (single isomer, unassigned) [Example 246, 1-(4-(4,4-difluoropiperidin-1-yl)cyclohexyl)-6-isopropyl-5-(8-methoxy-[1,2,4]triazolo[1,5-a]pyridin-6-yl)-1,3-dihydro-2H-benzo[d]imidazol-2-one], the IC50 at human TLR9 stood at 15500 nM; against human TLR7, 2.81 nM.
For `COc1cc(-c2cc3[nH]c(=O)n(C4CCC(N5CC[C@H](F)C5)CC4)c3cc2C(C)C)cn2ncnc12` (stereo partly drawn) [Example 287, (S)-1-(4-(3-fluoropyrrolidin-1-yl)cyclohexyl)-6-isopropyl-5-(8-methoxy-[1,2,4]triazolo[1,5-a]pyridin-6-yl)-1,3-dihydro-2H-benzo[d]imidazol-2-one], the half-inhibitory concentration (IC50) came out at 10900 nM against human TLR9 and 1.53 nM on human TLR7.
The corresponding values for `COc1c(C)c(-c2cc3[nH]c(=O)n(C4CCC(N5CCC6(CC5)COC6)CC4)c3cc2C(C)C)cn2ncnc12` (single isomer, unassigned) [Example 267, 1-(4-(2-oxa-7-azaspiro[3.5]nonan-7-yl)cyclohexyl)-6-isopropyl-5-(8-methoxy-7-methyl-[1,2,4]triazolo[1,5-a]pyridin-6-yl)-1,3-dihydro-2H-benzo[d]imidazol-2-one] are > 50000 nM and 2.1 nM.
Take `Cc1cc2c(cc1-c1cc(C)c3ncnn3c1)[nH]c(=O)n2[C@@H]1CCCN(CCC(F)(F)F)C1` [Example 29, (R)-6-methyl-5-(8-methyl-[1,2,4]triazolo[1,5-a]pyridin-6-yl)-1-(1-(3,3,3-trifluoropropyl)piperidin-3-yl)-1,3-dihydro-2H-benzo[d]imidazol-2-one]: the IC50 on human TLR9 is > 50000 nM; against human TLR7 it was 211 nM.
The corresponding values for `COc1cc(-c2cc3[nH]c(=O)n(C4CCC(N5CCC(S(C)(=O)=O)C5)CC4)c3cc2C(C)C)cn2ncnc12` (single isomer, unassigned) [Example 288, 6-isopropyl-5-(8-methoxy-[1,2,4]triazolo[1,5-a]pyridin-6-yl)-1-(4-(3-(methylsulfonyl)pyrrolidin-1-yl)cyclohexyl)-1,3-dihydro-2H-benzo[d]imidazol-2-one] are 47800 nM and 5.09 nM.
In the case of `Cc1c(-c2cc3[nH]c(=O)n(C4CCC(N5CCCC(F)C5)CC4)c3cc2C(C)C)cn2ncnc2c1C` (stereo not drawn) [Example 273, 5-(7,8-dimethyl-[1,2,4]triazolo[1,5-a]pyridin-6-yl)-1-(4-(3-fluoropiperidin-1-yl)cyclohexyl)-6-isopropyl-1,3-dihydro-2H-benzo[d]imidazol-2-one], the IC50 on human TLR9 is 13500 nM; on human TLR7, 9.22 nM.
The corresponding values for `Cc1cc(-c2cc(C)c3ncnn3c2)cc2[nH]c(=O)n(C3CCNCC3)c12` [106 F, 7-methyl-5-(8-methyl-[1,2,4]triazolo[1,5-a]pyridin-6-yl)-1-(piperidin-4-yl)-1,3-dihydro-2H-benzo[d]imidazol-2-one] are 1020 nM and 50.5 nM.
